Values joined by “and” are separate entries in the source; they are usually repeats but may differ in a detail not shown here. Equal values may be shown once. Non-standard residues stand in square brackets, D forms with d. Residues, ends and D or L forms follow the SMILES beside them. Nva = CCC[C@H](N)C(=O)O
What was measured:
PA induced HepG2 cells = assay: Mitochondrial content assay (MitoTracker), PA induced HepG2; assay type: cell-based, human; conditions: HepG2, PA + 200 μM JT003; in words
Experimental: 60–70% confluent LX2 cells and PA induced HepG2 cells were washed with PBS twice and incubated with 100 nM MitoTracker Green FM (YeSan, China) at 37 °C for 30 min For fluorescence intensity assay, cells were harvested by using trypsin/EDTA (ThermoFisher Scientific, USA) and resuspended in PBS. The excitation and emission wavelengths were 490 and 516 nm, respectively, and the intensity values corrected for total protein level (mg ml^−1). For mitochondrial visualized assay, after incubated with MitoTracker Green FM, the adherent cells were washed with PBS and a single in-focus optical section was acquired with confocal microscopy (Olympus, Japan). The nucleus was stained with Hochest33342 (ThermoFisher Scientific, USA). For every section n = 50 cells, images were analyzed and quantified by ImageJ.

[1] = tested on: CCl4 induced liver fibrosis mice; assay: CCl4 induced liver fibrosis mice: liver appearance, body weight, HE, Sirius red, IHC (αSMA, COL1α1, CD68); assay type: in vivo, mouse; conditions: in words
Experimental: (§1) Male mice liver fibrosis was induced by intraperitoneal injection of 20% CCl4 (Sigma, USA) diluted in corn oil (Aladdin, China) every 3 days for 6 weeks (n = 6; 5 ml kg^−1 body weight). Mice injected with equivalent volume of corn oil serves as control group (n = 6). Liver fibrosis mice treated with JT003 for 3 weeks were used to evaluated the pharmacological effects (n = 6; 500 μg kg^−1; daily intraperitoneal injection).
The levels of TG and HYP in liver tissue were detected with certain commercial assay kit (Nanjing Jiancheng Bioengineering Institute, China). Formalin-fixed liver tissues were embedded in paraffin, sectioned into 5 μm slices. After deparaffinization and rehydration of the section slices, they were stained with Haematoxylin and Eosin or Periodic Acid-Schiff. For the detection of liver collagen content, Sirius Red staining for collagen was performed. OCT-embedded frozen liver tissues were sectioned into 12 μm slices, and Oil Red O staining was performed. The cryostat-cut slices were stained with freshly prepared Oil Red O working solution for 7 min Two independent experimenters who were blinded to the treatment evaluated the staining slides and analyzed the score for steatosis, glucogen accumulation and collagen proliferation area.
Paraffin-embedded liver slices were deparaffinized and rehydrated, antigen retrieval was performed under the high pressure and temperature in 0.01 M sodium citrate buffer (pH = 6.0). To quench the endogenous peroxidase activity, the slices were then incubated with 1% hydrogen peroxide in methanol for 10 min in room temperature. Then slices were incubated with corresponding primary antibodies. After washing, HRP-conjugated secondary antibodies specific to the species of the primary antibodies were used. After the section were developed with DAB, hematoxylin staining was performed for cell counting.

[2] = tested on: liver gene expression of CCl4 induced liver fibrosis mice; assay: CCl4 mice: liver RNAseq gene expression analysis; assay type: in vivo, mouse; conditions: CCl4 + JT003 group
Experimental: as §1
The positive area of all stained liver slices was quantified by ImageJ (https://imagej.nih.gov/ij/). All data in this study were shown as the mean ± SEM (Standard Error). Student’s two-tailed t test was used to compare the mean of two groups of samples. All statistical analyses were performed with GraphPad Prism software (https://www.graphpad.com/). Significance was considered when p < 0.05. In RNAseq gene expression analysis, false discovery rate <0.01, q value <0.001. The confidence level was 95%.

[3] = Pharmacokinetic assay in SD rats; assay type: in vivo, rat
Experimental: Male SpragueDawley (SD) rats were randomly divided into two groups (n = 3 per group) and received a single intravenous dose of JT003 (0.5 mg/kg) or ADP355 (1.0 mg kg^−1) respectively. Blood samples were collected at 5, 15, 30, 45 min and 1, 2, 3 h following the injection, and then were immediately centrifuged (4000g, 10 min, 4 °C) to obtain plasma samples. Plasma concentrations of the two peptides were measured by LC-MS/MS (ThermoFisher Scientific, USA). Pharmacokinetic parameters of JT003 and ADP355 were calculated using non-compartmental analysis in Phoenix WinNonlin (version 8.0, Pharsight, USA). The concentration values less than the LLOQ were set to zero for the analysis.

[4] = Sprague-Dawley, rat, male SD rats, single iv dose: JT003 0.5 mg/kg, ADP355 1.0 mg/kg, plasma, LC-MS/MS, non-compartmental, Mean ± SD, n = 3-6

## CCC[C@H](NC(=O)[C@@H]1CCCN1)C(=O)N[C@@H](CC(C)C)C(=O)N[C@@H](Cc1ccc(O)cc1)C(=O)N[C@@H](Cc1ccc(O)cc1)C(=O)N[C@@H](Cc1ccccc1)C(=O)N[C@@H](C)C(N)=O [JT003] (H-P[Nva]LYYFA-NH2)
PA induced HepG2 cells
  mitochondrial content / biogenesis in PA induced HepG2: mitochondrial biogenesis was improved
[1]; CCl4 induced liver fibrosis mice, administration dosages of 0.5 mg kg−1 and 2 mg kg−1
  inflammation, necrosis and fibrosis area (HE and sirius red staining): significantly decreased
[1]; CCl4 induced liver fibrosis mice
  liver adhesion (dissected assays): reduced
[1]; CCl4 mice, JT003 500 μg kg−1
  IHC staining of CD68 (macrophage infiltration): markedly reduced the inflammation
  immunohistochemical staining for αSMA and COL1α1: confirmed the improvement of liver fibrosis
[2]; Figure 6c
  Akr1c18 liver RNAseq expression: 0.1038
  Bco1 liver RNAseq expression: 0.5514
  Brca1 liver RNAseq expression: -0.5686
  C3ar1 liver RNAseq expression: -0.04576
  C5ar1 liver RNAseq expression: -0.1308
  Ccl9 liver RNAseq expression: 1.215
  Cxcl1 liver RNAseq expression: 1.2887
  Fbn1 liver RNAseq expression: -0.3979
  Fbn2 liver RNAseq expression: -1.301
  Nupr1 liver RNAseq expression: 0.5866
  Ptges liver RNAseq expression: -0.4949
  Rdh11 liver RNAseq expression: 0.8089
  Robo1 liver RNAseq expression: -0.03152
  Xcr1 liver RNAseq expression: -0.1135
[2]; Figure 7c
  Alg8 liver RNAseq expression: 0.5944
  Anxa5 liver RNAseq expression: 1.645
  Atp2b2 liver RNAseq expression: -0.4202
  Atp7b liver RNAseq expression: 0.2148
  Ces3b liver RNAseq expression: 2.066
  Creb3l2 liver RNAseq expression: 0.1072
  Dhrs9 liver RNAseq expression: -0.6021
  Elovl3 liver RNAseq expression: 0.433
  Fitm1 liver RNAseq expression: -0.3372
  Fmo2 liver RNAseq expression: 0.8831
  Fndc5 liver RNAseq expression: -0.7212
  Grik5 liver RNAseq expression: 0.5888
  Mia2 liver RNAseq expression: 0.7875
  Myo5a liver RNAseq expression: -0.7959
  Nat8f5 liver RNAseq expression: 0.6064
  Nsdhl liver RNAseq expression: 0.8949
  Nucb2 liver RNAseq expression: 0.4814
  Pdilt liver RNAseq expression: 0.5899
  Pkmyt1 liver RNAseq expression: 0.09691
  Prom1 liver RNAseq expression: -0.03152
  Serpina1e liver RNAseq expression: 3.324
  Slc37a2 liver RNAseq expression: -0.4559
  Soat1 liver RNAseq expression: -0.1079
  Sorl1 liver RNAseq expression: -0.8539
  Srd5a2 liver RNAseq expression: -0.09691
  Trim59 liver RNAseq expression: -0.4949
  Zdhhc2 liver RNAseq expression: -0.3468
[2]; Figure 5d
  Adamts5 liver RNAseq expression: -0.4318
  Adamtsl1 liver RNAseq expression: -0.9208
  Anxa2 liver RNAseq expression: 1.107
  Ckap4 liver RNAseq expression: -0.05061
  Col1a1 liver RNAseq expression: 0.8745
  Col1a2 liver RNAseq expression: 0.934
  Col3a1 liver RNAseq expression: 1.043
  Col6a3 liver RNAseq expression: 0.1367
  Lgals3 liver RNAseq expression: 0.941
  Lpl liver RNAseq expression: 1.015
  Ltbp2 liver RNAseq expression: -0.2757
  Mmp12 liver RNAseq expression: -0.1805
  Nid1 liver RNAseq expression: 0.5877
  Nid2 liver RNAseq expression: 0.03342
  Npnt liver RNAseq expression: -1.222
  Serpine2 liver RNAseq expression: 0.143
  Slpi liver RNAseq expression: 0.6998
  Tubb4b liver RNAseq expression: 1.687
[3]; [4]
  AUC(0-inf): 20.9 ± 1.63 ng·h/mL
  AUC(0-t): 19.4 ± 1.51 ng·h/mL
  MRT: 62.4 ± 1.8 min
  clearance: 401 mL/min/kg
[3]; Sprague-Dawley, rat, male SD rats, single iv dose: JT003 0.5 mg/kg, ADP355 1.0 mg/kg, plasma, LC-MS/MS, non-compartmental, Mean ± SD, n = 3-6, read-out: V
  Vd: 26 ± 2.29 L/kg
[3]; male SD rats, single iv dose: JT003 0.5 mg/kg, ADP355 1.0 mg/kg, plasma, LC-MS/MS, non-compartmental, Mean ± SD, n = 3-6 (n = 3 per group)
  t1/2: 45 ± 0.6 min and 45 min
[3]; reviewer's reading of the PK experiment
  improved circulating half-life vs the predecessor compound (ADP355): 7-8 fold

From paper PMC7669869, “AdipoR1/AdipoR2 dual agonist recovers nonalcoholic steatohepatitis and related fibrosis via endoplasmic reticulum-mitochondria axis” (Nature Communications, 2020)
